Laboratory results reported in ChEMBL document CHEMBL1153175, “Pyrazole derived from (+)-3-carene; a novel potent, selective scaffold for sphingosine-1-phosphate (S1P(1)) receptor agonists” (Bioorg Med Chem Lett, 2010).
Activity calls are given as the source filed them. The calls are words filed in the database; no cut-off is given here.

What was measured:
[1] = target: T1, Sphingosine 1-phosphate receptor 5 (Homo sapiens, UniProt Q9H228); assay: Agonist activity at human SIP5 receptor by [35S]GTPgammaS binding assay; format: functional
T1 sequence (Q9H228 whole entry): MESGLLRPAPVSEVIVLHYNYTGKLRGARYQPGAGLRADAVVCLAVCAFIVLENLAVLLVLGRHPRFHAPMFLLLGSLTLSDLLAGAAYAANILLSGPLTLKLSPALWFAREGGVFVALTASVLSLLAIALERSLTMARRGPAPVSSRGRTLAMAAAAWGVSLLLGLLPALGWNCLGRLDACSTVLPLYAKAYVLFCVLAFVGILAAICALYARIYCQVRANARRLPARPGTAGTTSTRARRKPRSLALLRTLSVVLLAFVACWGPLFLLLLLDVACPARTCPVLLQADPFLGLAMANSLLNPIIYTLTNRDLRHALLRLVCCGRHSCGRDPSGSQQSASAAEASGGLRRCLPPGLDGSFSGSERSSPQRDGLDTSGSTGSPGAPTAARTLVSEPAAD

[2] = target: T1, Sphingosine 1-phosphate receptor 5; assay: Agonist activity at human SIP5 receptor at 10 uM by [35S]GTPgammaS binding assay relative to S1P; format: functional
[3] = target: T2, Sphingosine 1-phosphate receptor 1 (Homo sapiens, UniProt P21453); assay: Agonist activity at human SIP1 receptor expressed in CHO cells by [35S]GTPgammaS binding assay; format: functional, cell-based
T2 sequence (P21453 whole entry): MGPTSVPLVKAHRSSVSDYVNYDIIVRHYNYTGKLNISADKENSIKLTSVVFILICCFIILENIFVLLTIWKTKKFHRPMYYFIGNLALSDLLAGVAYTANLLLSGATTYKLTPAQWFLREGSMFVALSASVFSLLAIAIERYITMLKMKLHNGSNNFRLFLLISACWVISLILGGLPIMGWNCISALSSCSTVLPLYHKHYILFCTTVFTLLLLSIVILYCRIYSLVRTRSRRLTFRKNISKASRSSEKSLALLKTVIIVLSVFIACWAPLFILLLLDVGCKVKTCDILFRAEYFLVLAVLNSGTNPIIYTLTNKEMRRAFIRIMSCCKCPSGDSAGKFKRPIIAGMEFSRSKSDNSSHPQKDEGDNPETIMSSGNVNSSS

[4] = target: T3, Sphingosine 1-phosphate receptor 3 (Homo sapiens, UniProt Q99500); assay: Agonist activity at human SIP3 receptor by [35S]GTPgammaS binding assay; format: functional
T3 sequence (Q99500 whole entry): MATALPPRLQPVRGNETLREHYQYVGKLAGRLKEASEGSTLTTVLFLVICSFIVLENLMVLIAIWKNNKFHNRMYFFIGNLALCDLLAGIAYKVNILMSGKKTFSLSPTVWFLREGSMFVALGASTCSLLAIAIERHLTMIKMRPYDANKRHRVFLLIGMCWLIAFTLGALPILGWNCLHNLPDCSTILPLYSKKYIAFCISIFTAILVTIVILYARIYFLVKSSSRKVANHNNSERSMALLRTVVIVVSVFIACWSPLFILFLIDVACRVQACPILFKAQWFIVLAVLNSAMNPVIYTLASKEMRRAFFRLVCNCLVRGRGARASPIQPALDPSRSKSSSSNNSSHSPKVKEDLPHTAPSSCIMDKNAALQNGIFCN

[5] = target: T3, Sphingosine 1-phosphate receptor 3; assay: Agonist activity at human SIP3 receptor at 10 uM by [35S]GTPgammaS binding assay relative to S1P; format: functional
[6] = target: T4, Sphingosine 1-phosphate receptor 4 (Homo sapiens, UniProt O95977); assay: Agonist activity at human SIP4 receptor by [35S]GTPgammaS binding assay; format: functional
T4 sequence (O95977 whole entry): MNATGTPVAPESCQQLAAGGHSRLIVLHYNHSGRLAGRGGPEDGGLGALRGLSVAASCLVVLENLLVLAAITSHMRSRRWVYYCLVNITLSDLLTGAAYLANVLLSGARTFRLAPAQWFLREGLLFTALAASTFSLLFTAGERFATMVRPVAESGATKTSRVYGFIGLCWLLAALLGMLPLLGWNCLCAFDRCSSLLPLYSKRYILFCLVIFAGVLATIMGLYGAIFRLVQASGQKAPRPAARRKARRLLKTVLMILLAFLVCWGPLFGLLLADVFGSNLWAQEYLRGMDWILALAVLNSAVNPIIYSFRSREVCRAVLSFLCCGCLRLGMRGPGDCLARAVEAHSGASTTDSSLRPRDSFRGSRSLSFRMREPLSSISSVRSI

[7] = target: T5, Sphingosine 1-phosphate receptor 4 (Homo sapiens) (UniProt O95977); assay: Agonist activity at human SIP4 receptor at 10 uM by [35S]GTPgammaS binding assay relative to S1P; format: functional
T5 sequence (whole entry): T4 sequence (O95977 whole entry)

[8] = target: T2, Sphingosine 1-phosphate receptor 1; settings: CHO, at 10 µM
Description: Agonist activity at human SIP1 receptor expressed in CHO cells at 10 uM by [35S]GTPgammaS binding assay relative to S1P

[9] = tested on: Rattus norvegicus; assay: Reduction of lymphocytes count in Lewis rat blood at 3 mg/kg. po; format: functional, organism-based; design: dose 3 mg/kg
[10] = tested on: Rattus norvegicus; assay: Reduction of lymphocytes count in Lewis rat blood at 0.3 mg/kg. iv; format: functional, organism-based; design: dose 0.3 mg/kg
[11] = Chemical stability at pH >7 assessed as half life; format: physicochemical
[12] = organism: Homo sapiens; assay: Selectivity ratio, EC50 for human S1P1 receptor over EC50 for human S1P4 receptor
[13] = organism: Homo sapiens; assay: Selectivity ratio, EC50 for human S1P1 receptor over EC50 for human S1P5 receptor

Structure (SMILES)	EC50 [1] [µM]	Emax [2] [%]	EC50 [3] [µM]	EC50 [4] [µM]	Emax [5] [%]	EC50 [6] [µM]	Emax [7] [%]	Emax [8] [%]	half-life [11] [h]	Ratio EC50 [12]	Ratio EC50 [13]	Activity [9]	Activity [10]
Cc1nn(C(=O)/C=C/C2CCCCC2)c2c1[C@H]1[C@@H](C2)C1(C)C	> 10	29	> 10	> 10	3	> 10	15	18					
Cc1nn(C(=O)CCc2ccccc2)c2c1[C@H]1[C@@H](C2)C1(C)C	> 10	26	0.086	> 10	38	> 10	0	55					
Cc1nn(S(=O)(=O)/C=C/c2ccccc2)c2c1[C@H]1[C@@H](C2)C1(C)C	> 10	-1	> 10	> 10	-2	> 10	-19	7					
Cc1nn(C(=O)/C=C/c2ccc(-c3ccccc3)cc2)c2c1[C@H]1[C@@H](C2)C1(C)C	> 10	22	0.28	> 10	8	> 10	1	76					
CCCCCCC(=O)n1nc(C)c2c1C[C@@H]1[C@H]2C1(C)C	> 10	2	> 10	> 10	44	> 10	-6	25					
Cc1nn(C/C=C/c2ccccc2)c2c1[C@H]1[C@@H](C2)C1(C)C	> 10	10	> 10	> 10	14	> 10	10	45					
COc1ccc(/C=C/C(=O)n2nc(C)c3c2C[C@@H]2[C@H]3C2(C)C)cc1OC	0.9	80	0.025	> 10	46	> 10	30	89					

Now from value to compound, other results behind:

EC50 [1] [µM]	Emax [2] [%]	EC50 [3] [µM]	EC50 [4] [µM]	Emax [5] [%]	EC50 [6] [µM]	Emax [7] [%]	Emax [8] [%]	half-life [11] [h]	Ratio EC50 [12]	Ratio EC50 [13]	Structure (SMILES)	Activity [9]	Activity [10]
0.13	93	0.007	0.345	83	0.1	32	92	3			Cc1nn(C(=O)/C=C/c2ccncc2)c2c1[C@H]1[C@@H](C2)C1(C)C	inactive	inactive
> 10	16	0.119	> 1	68	> 10	-22	68				Cc1nn(C(=O)/C=C/c2ccc(S(N)(=O)=O)cc2)c2c1[C@H]1[C@@H](C2)C1(C)C		
> 10	-19	0.016	> 1	69	> 10	-19	89				Cc1nn(C(=O)/C=C/c2ccccc2Cl)c2c1[C@H]1[C@@H](C2)C1(C)C		
1.76	90		> 1	94	> 10	-2					Cc1nn(C(=O)/C=C/c2ccccc2)c2c1[C@H]1[C@@H](C2)C1(C)C		
0.325	56	0.026	> 10	46	> 10	17	65				Cc1nn(C(=O)/C=C/c2cccc(C(F)(F)F)c2)c2c1[C@H]1[C@@H](C2)C1(C)C		
0.345	87	0.017	> 1	61	0.1	30	90				Cc1nn(C(=O)/C=C/c2cccnc2)c2c1[C@H]1[C@@H](C2)C1(C)C		
0.082	76	0.011	1.35	84	0.116	21	92				Cc1nn(C(=O)/C=C/c2cccc(S(N)(=O)=O)c2)c2c1[C@H]1[C@@H](C2)C1(C)C		
0.505	130	0.002	0.995	84	0.56	28	90		250	250	Cc1nn(C(=O)/C=C/c2cccc3[nH]ccc23)c2c1[C@H]1[C@@H](C2)C1(C)C	inactive	inactive
